# Experimental data from patent US9642922B2, “Caspase-triggered nano-aggregation probes and methods of use” (The Board of Trustees of the Leland Stanford Junior …, priority 2013, dated 2017).
# Numbered stars: 1 amine (or outer) side, 2 acyl side, 3 side chain; on linkers, the order of the positions; unused ones are H or OH. Square brackets hold non-standard residues; d marks the D form. Peptide text beside a SMILES is read from it. * marks the point of attachment. DOTA = O=C(O)CN1CCN(CC(=O)O)CCN(CC(=O)*)CCN(CC(=O)O)CC1; X1 = O=C(C1CSC(c2nc3ccc(N[*:1])cc3s2)=N1)[*:2]; X2 = N#Cc1ccc2cc(OCCCN*)ccc2n1; SEt = CCS*
# How the values were obtained:
# [1] = system: apoptotic cells; assay: Two-photon laser confocal microscopy of europium analogue in HeLa cells; format: cell-based, human; settings: same conditions as probe 15 uptake
# [2] = system: apoptotic HeLa cells; assay: Epifluorescence microscopy of apoptotic HeLa cells labeled with probes; format: cell-based, human; settings: microscopy, 2 μM probe
# Method: After removal of the medium, the cells were incubated with C-SNAF, L-ctrl, or D-ctrl at 2 μM for 24 h. Some cells were first incubated with caspase inhibitor (Z-VAD-fmk, 50 μM) for 30 min, followed by incubating with 2 μM C-SNAF for 24 h. The cells were carefully washed with PBS (1×) three times, and stained with Hoechst 33342 (2 μM) at 37° C. for 30 min. After rinses with PBS (1×) several times, the medium was replaced and the fluorescence images were acquired with DAPI and Cy5.5 filters. The images were processed using the standard CRi Nuance software, analyzed using Image J software package (NIH), and presented at the same intensity scale for comparison.
# HeLa cells in #1.5 borosilicate 8-well chambered coverslips (Nunc) were either incubated with C-SNAF (2 μM) alone or co-incubated with DOX (1, 2, and 5 μM) and 2 μM C-SNAF, 2 μM C-SNAF together with caspase inhibitor (Z-VAD-fmk, 50 μM), or control probes D-ctrl and L-ctrl at 2 μM for 24 h. Then the medium was removed, the cells were carefully washed with PBS (1×) three times, and stained with nuclear binding probe Hoechst 33342 (2 μM) at 37° C. for 30 min. After several rinses with PBS (1×), the medium was replaced and the fluorescence images were acquired with DAPI and […] filters.
# [3] = system: STS-induced apoptotic HeLa cells; assay: Flow cytometry of STS-induced apoptotic HeLa cells labeled with probes; format: cell-based, human; settings: 2 μM probe, compared with C-SNAF
# Method: Approximately 10^5 HeLa cells in 1 mL DMEM medium were seeded onto 12-well plates. […] For the inhibitor blocking experiment, the STS-treated cells were first incubated with the caspase inhibitor Z-VAD-fmk (50 μM, R&D Systems) for 30 min, and then 2 μM C-SNAF was added. All cells incubations were 24 h, followed by staining with FLICA (FAM) after trypsinization. After washing with PBS (1×) three times, the cell pellets were resuspended in 300 μL PBS and applied for flow cytometry analysis using the FITC and Cy5.5 channels. The cell number for each flow cytometry analysis was approximately 5000 to 10000, and the data was processed using FlowJo software.
# [4] = system: subcutaneous HeLa tumors; assay: In vivo fluorescence imaging of DOX-treated HeLa tumor-bearing mice; design: species or system mouse
# Method: C-SNAF or either of the control probes (5 nmol) was administered intravenously to tumor-bearing mice and whole animal fluorescence was longitudinally monitored using a Maestro fluorescence imager.
# (§1) To establish tumors in 6-week-old female nu/nu mice, 2×10^6 HeLa cells suspended in 50 μL of a 50% v/v mixture of Matrigel in supplemented DMEM (10% FBS, 1% penstrep) were injected subcutaneously in the shoulders of the mouse. Tumors were grown until a single aspect was 0.7 to 0.9 cm (approximately 10-15 days), and then treatment consisting of 8 mg/kg DOX or saline was initiated. Treatments were administered intravenously once every 4 d for a total of three times. Total mouse body weight and tumor size (width and length by caliper) was measured every other day. Tumor volumes were calculated assuming ellipsoid shape with the formula (l×w^2)/2.
# Two days following the final treatment, 5 nmol probe in saline was injected intravenously and fluorescence imaging began immediately on a Maestro hyperspectral fluorescent imaging system (PerkinElmer, Mass., USA) using a 635±25 nm excitation filter and a 675 nm long-pass emission filter, with images acquired from 670 to 900 nm. Tissue autofluorescence and Cy5.5 fluorescence were deconvolved, and tumor fluorescence intensity was quantified by region of interest measurement using Nuance v.3.0.1.2 software (Perkin Elmer, Mass., USA).
# [5] = target: T1, caspase-3 (Homo sapiens, UniProt P42574); assay: HPLC assay of caspase-3-triggered macrocyclization of C-SNAF; format: biochemical; design: purchased Sigma; host or cells: E. coli; settings: same conditions as C-SNAF; D-ctrl after 24 h
# T1 sequence (P42574 29-175 limits assumed): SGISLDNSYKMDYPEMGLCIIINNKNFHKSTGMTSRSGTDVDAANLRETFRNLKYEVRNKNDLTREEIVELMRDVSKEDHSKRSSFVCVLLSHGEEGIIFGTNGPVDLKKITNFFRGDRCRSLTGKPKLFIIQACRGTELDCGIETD
# T1 sequence (P42574 176-277 limits assumed): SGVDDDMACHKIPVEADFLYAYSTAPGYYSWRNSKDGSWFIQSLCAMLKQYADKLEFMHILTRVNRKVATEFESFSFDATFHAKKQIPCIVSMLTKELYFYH
# Method: The progression of caspase-3-triggered macrocyclization of C-SNAF to form C-SNAF-cycl in solution was monitored using high-performance liquid chromatography (HPLC) following incubation of the probe (25 μM) with recombinant human caspase-3 (4.9×10^−[…]).
# Caspase (human, recombinant from E. coli) assays were performed for caspase-3 (4.9×10^−3 U; 7.35×10^−4 mg, Sigma), −7 (18.3 U; 7.35×10^−4 mg, Calbiochem), and −9 (0.3 U; 7.35×10^−4 mg, Calbiochem). All caspase assays were conducted in caspase buffer with 50 mM HEPES, 100 mM NaCl, 1 mM EDTA, 10 mM TCEP, 10% glycerol, and 0.1% CHAPS at pH 7.4. Cathepsin B (human liver; 0.27 U; 7.35×10^−4 mg, Calbiochem) and Legumain (human, recombinant from mouse myeloma cell line; >250 pmol/min/μg; 7.35×10^−4 mg, R&D Systems) were conducted in reaction buffer with 50 mM sodium acetate, 50 mM NaCl, 0.5 mM EDTA and 10 mM TCEP at pH 5.5. C-SNAF was diluted in the respective enzyme reaction buffer (25 μM, 1 mL) and remained at room temperature for 10 min, to which was then added the respective enzymes. Reactions were performed at 37° C., and monitored by HPLC hourly. The percentage conversion of the reaction was calculated based on the percentage of peak area of C-SNAF-cycl in the HPLC trace at 675 nm UV detection, which indicated the efficacy of enzyme cleavage of C-SNAF.
# [6] = mouse, in vivo, iv
# [7] = system: caspase-3/7 activity; assay: CASPASE-GLO 3/7 assay in saline- and 3×DOX-treated tumor lysates; format: in vivo, mouse; settings: 3×DOX 8 mg/kg i.v.
# Method: HeLa tumor xenografted mice were treated with saline or 3×DOX (8 mg/Kg). After treatment, the mice were sacrificed, and the tumors were resected and lysed with RIPA buffer (1 g tissue/1 ml buffer). The solution was homogenized for 1 min on ice, three times. The lysed solution was kept on ice for another 30 min, and centrifuged at 14,000×g for 30 min at 4° C. The supernatant was collected, and the protein concentration was measured using Bradford assay with BSA as standard. The caspase-3/7 activity in the lysed solution was measured by CASPASE-GLO® 3/7 assay, and normalized to the protein concentration.
# [8] = system: caspase-3 level; assay: Caspase-3 level in DOX-treated HeLa tumors; format: in vivo, mouse; settings: 0.2 mg DOX intratumoral, 4 days
# Method: Mice were injected subcutaneously on the right shoulder with an estimated 1-2 million HeLa cells. The HeLa cells were allowed to establish a tumor xenograft and to grow to the size of 1 cm in diameter. A subset of the mice was treated with intratumoral injections of 0.2 mg (in 20 μL) doxorubicin. Four days later, the animals were killed, the tumors removed and quickly frozen using dry ice. The following day, tumors were cut into small pieces, weighted and 1 mL/g Riba buffer was added. They were kept on ice for 30 min and then homogenized with a sonicator (Bronson Sonifier 150). The lysed tumor solutions were centrifuged at 11,750×g for 15 min at 4° C. The supernatant was analyzed for caspase-3 activity using the CASPASE-GLO® kit (Promega) and for protein concentration using the standard BSA absorption assay.
# [9] = system: caspase-3 activity; assay: Caspase-3 level in Dox-treated HeLa cells; format: cell-based, human; settings: Dox 2 μM, 24 h
# Method: HeLa cells were incubated with different concentrations of doxorubicin (0, 1, 2 and 5 μM) and the cell/Tryp-LE solution was centrifuge at 11,750×g for 5 min, the supernatant was removed and 1 mL/g Riba buffer (Sigma) was added. The cells were left for 15 min on ice and homogenized with a sonicator (Bronson Sonifier 150) and the suspension was analyzed for Caspase-3 activity with a CASPASE-GLO® kit from Promega.
# PET tracer 1 was applied to detect caspase-3 in apoptotic cells in vitro. HeLa cells were incubated with doxorubicin (Dox) (2 μM) for 24 h to induce apoptosis. […] Both Dox-treated and non-treated cells were then incubated with 1 for 4 h.
# [10] = system: HeLa tumor xenograft; assay: Tumor size monitoring in HeLa xenograft chemotherapy model; format: in vivo, mouse; settings: 3×DOX 8 mg/kg i.v.
# Method: as §1
structure (smiles),measurement,setting,value
CCSSCC(NC(=O)C(CC(=O)O)NC(=O)C(NC(=O)C(CCC(=O)O)NC(=O)C(CC(=O)O)NC(C)=O)C(C)C)C(=O)NC(CCCCNC(=O)CN1CCN(CC(=O)[O-])CCN(CC(=O)[O-])CCN(CC(=O)[O-])CC1)C(=O)Nc1ccc2nc(C3=NC(C(=O)NCCCOc4ccc5nc(C#N)ccc5c4)CS3)sc2c1.[Eu+3] (stereo not drawn) [1-Eu^3+ (16)] (Ac-DEVDC(SEt)K(DOTA)[X1]-X2; configuration not given here),fluorescent signal in apoptotic cells,[1],strong fluorescent signal in apoptotic cells
CC[N+]1=C(C=CC=CC=C2N(CCCCCC(=O)NCCCCC(NC(=O)C(CSC)NC(=O)C(CC(=O)O)NC(=O)C(NC(=O)C(CCC(=O)O)NC(=O)C(CC(=O)O)NC(C)=O)C(C)C)C(=O)Nc3ccc4nc(C5=NC(C(=O)NCCCOc6ccc7ncccc7c6)CS5)sc4c3)c3ccc4c(S(=O)(=O)O)cc(S(=O)(=O)O)cc4c3C2(C)C)C(C)(C)c2c1ccc1c(S(=O)(=O)O)cc(S(=O)(=O)[O-])cc21 [L-ctrl],fluorescence of apoptotic cells compared to C-SNAF,[2],relatively weaker fluorescence
same,fluorescent intensity of apoptotic cells incubated with control probes,[3],much lower fluorescent intensity
same,correlation (r) of maximum tumor fluorescence with maximum tumor size change,"[4]; 3×DOX-treated mice, 1 h after probe",no significant correlation
same,average signal enhancement between DOX- and saline-treated tumors,[4]; 4 h after probe administration,0.24%
same,tumor fluorescence lower than that of C-SNAF,"[4]; DOX-treated mice, 1 h",18%
same,products observed after incubation with caspase-3,[5],only the caspase-3-mediated DEVD-cleavage hydrolysis product
same,blood half-life,[6],30 ± 16.8 min
"COc1cccc2c1C(=O)c1c(O)c3c(c(O)c1C2=O)C[C@@](O)(C(=O)CO)C[C@@H]3O[C@H]1C[C@H](N)[C@H](O)[C@H](C)O1 [DOX, doxorubicin]",increase in caspase-3/7 activity in tumor lysates versus saline,[7],approximately 2 fold
same,increase of caspase-3 level in treated tumors,[8],1.9 fold
same,caspase-3 activity of lysates of treated versus non-treated cells,[9],9.5 fold
same,tumor growth rate relative to saline,[10],significant decrease in tumor growth rates
